Test results: patent US8076485B2, “Methylphenidate derivatives and uses of them” (priority 2005, dated 2011)

Tests used:
Type in all cases: cell-based, human
[1] = tested on: peripheral blood lymphocytes (PBL); assay: PHA-induced cell clumping of PBL; details: Example 1, PBL of donor GR283; compound 5, 15, 50 μg/ml; 5 μg/ml PHA; 72 hours
Method: Whole blood was drawn from GR283, a human volunteer with known allergies, into a glass vacutainer tube containing no anticoagulant. This blood was allowed to clot, and the serum was removed by centrifugation and then heat inactivated by placing it in a water bath at 56° C. for 30 minutes. Whole blood from GR283 was also drawn into a glass vacutainer tube containing heparin and used for peripheral blood lymphocytes (PBL) isolation as follows. Whole blood was layered over room temperature Histopaque 1077 solution and centrifuged at 2000 rpm for 15 minutes at room temperature. Cells at the plasma-Histopaque interface were then removed and washed with culture medium (IMDM medium with 10% heat-inactivated GR283 serum plus 1% penicillin/streptomycin) at 37° C.
The compound of formula II (see above) and methylphenidate (both obtained from Dr. Jeffrey D. Winkler, University of Pennsylvania, Philadelphia, Pa.) in culture medium were added to wells of a 96-well plate to give final concentrations of 5 μg/ml, 15 μg/ml and 50 μg/ml of the compound of formula II and of methylphenidate. […] Then, GR283's PBL in culture medium were added to the wells to give a final concentration of 150,000 cells per well, and the plates were incubated at 37° C., 5% CO2 for 24 hours. […]

NFκB = assay: Activated NFκB in VEGF-treated HUVECs (TransAM assay); details: Cpd II at 15 μg/ml and 5 μg/ml
Method: Passage 5 HUVECs, human source lot number 8750, were grown to confluence in 25 cm^2 flasks in EGM-2 medium. The following additives were added to the flasks (total volume of 5 ml/flask) in EGM-2 medium containing 2% FCS, GA1000 (gentamycin), heparin and ascorbic acid (all from Cambrex): 1 μg/ml of the compound of formula II (Cpd II); 5 μg/ml Cpd II; 15 μg/ml of Cpd II; 15 μg/ml methylphenidate (MP); or 10 μM LY 294002. The flasks were incubated overnight at 37° C., 5% CO2. After this incubation, VEGF was added to give a final concentration 10 ng/ml, and the flasks were incubated for an additional 30 minutes.
Then, the amount of NFκB was determined using a TransAM™ NFκB p65/NFκB p50 Transcription Factor Assay Kit and a Nuclear Extract Kit from Active Motif North America, Carlsbad, Calif., according to the manufacturer's instructions. Briefly, a nuclear extract of the cells was prepared using the Nuclear Extract Kit. Then, the nuclear extract was added to the wells of the 96-well plate of the TransAM™ kit. […] Then, an antibody directed against the NFκB p65 or p50 subunit was added, and the NFκB complex bound to the oligonucleotide was detected. A secondary antibody conjugated to horseradish peroxidase (HRP) was next added to provide a colorimetric readout that was quantified by spectrophotometry (measurement at 450 nm).

TCR-positive cells = assay: Annexin staining of TCR-positive cells (flow cytometry, cell death); details: PHA 5 μg/ml plus 50 μg/ml; PHA alone 67%
Method: (§1) After this incubation, PHA was added to give a final concentration of 5 μg/ml, and the cells were incubated for an additional 72 hours at 37° C., 5% CO2. All cultures were performed in triplicate. Cells were then removed by centrifugation at 1000 rpm for 10 minutes.
The cells were further analyzed by flow cytometry Annexin was used to determine populations of dead or dying cells. Anti-CD69 antibody was used to establish the level of cellular activation. Antibody to T-cell receptor αβ (TCR) was also used. Recombinant Annexin 5 (PE and FITC conjugates) and the antibodies were all purchase from Caltag (Burlingham, Calif.) and used following the manufacturer's recommendations.

TNFα = TNFα release by PHA-stimulated PBL (ELISA); details: Example 3, GR191 PBL, Cpd II 15 and 50 μg/ml, Dex 10 μM, 72 hours, FIG. 7
Method: as §1
The TNFα ELISA was performed as described in Example 2 using matched pair antibodies from Pierce Endogen (2 μg/ml for the coating antibody and 250 ng/ml for the second antibody).

erythropoietin (EPO) = assay: Erythropoietin (EPO) release from HepG2 cells (ELISA); details: 24 hours
Method: HepG2 is a human hepatic cancer cell line, which was obtained from ATCC. HepG2 cells were grown to confluence in 25 cm^2 flasks in IMDM medium containing 10% FCS. Then, the cells were trypsinized as follows. The medium in each flask was aspirated and replaced with 5 ml of 0.025% trypsin/EDTA (Cambrex). The cells were monitored on a microscope until they no longer adhered to the flasks. Then, 5 ml of trypsin neutralizing solution (TNS) (Cambrex) were added to each flask to stop the reaction. The cell suspension was centrifuged at 1000 rpm for 10 minutes, and the supernatants were aspirated. The cells were reconstituted in fresh medium and counted. Then, 4 ml of the cell suspension in medium containing at 1.22×10^6 cells/ml were mixed with an additional 1 ml of medium. Next, 0.5 ml/well of the resulting cell suspension was added to wells in a 24-well culture plate (about 500,000 cells/well). The cells were treated as indicated in Table 5 below and incubated for 24 hours at 37° C., with or without 5% CO2. The supernatants were removed from the wells and centrifuged to remove debris. Next, the supernatants were analyzed for erythropoietin (EPO) production. EPO was measured by ELISA using a kit obtained from R & D Systems, Minneapolis, Minn. (catalog no. DE900) following the manufacturer's instructions.

`COC(=O)C(c1ccc(-c2ccccc2)cc1)C1CCCCN1` (stereo not drawn) [Cpd II] was tested, and the “amount of cell clumping induced by PHA” value [1] was “reduced the amount of cell clumping induced by 5 μg/ml PHA in a dose-dependent manner”, the “amount of activated NFκB” value (NFκB) was “reduced the amount of activated NFκB back to basal levels” and the “Annexin staining of TCR-positive cells (cell death)” value (TCR-positive cells) was 87%. For the same compound, the “release of TNFα from PHA-stimulated PBL” value (TNFα) was “significantly inhibited the release of TNFα”, the “Mean Units/ml EPO” value (erythropoietin (EPO); HepG2, hypoxia (5% CO2), Cpd II 15 μg/ml, LY 294002 25 μM, hypoxia alone 108.39 ± 2.81) was 71.60 ± 2.01 Units/ml and the “release of EPO from the HepG2 cells” value (erythropoietin (EPO); HepG2, hypoxia, 15 μg/ml) was “significantly inhibited the release of EPO”.
